Laboratory results published in ChEMBL document CHEMBL1149313, “Synthesis of classical, three-carbon-bridged 5-substituted furo[2,3-d]pyrimidine and 6-substituted pyrrolo[2,3-d]pyrimidine analogues as antifolates” (J Med Chem, 2004).

Key:
[1] = target: T1, Folylpolyglutamate synthase, mitochondrial (Homo sapiens) (UniProt Q05932); test: Ratio of Vmax to Km of human recombinant cytosolic FPGS
T1 sequence (whole entry): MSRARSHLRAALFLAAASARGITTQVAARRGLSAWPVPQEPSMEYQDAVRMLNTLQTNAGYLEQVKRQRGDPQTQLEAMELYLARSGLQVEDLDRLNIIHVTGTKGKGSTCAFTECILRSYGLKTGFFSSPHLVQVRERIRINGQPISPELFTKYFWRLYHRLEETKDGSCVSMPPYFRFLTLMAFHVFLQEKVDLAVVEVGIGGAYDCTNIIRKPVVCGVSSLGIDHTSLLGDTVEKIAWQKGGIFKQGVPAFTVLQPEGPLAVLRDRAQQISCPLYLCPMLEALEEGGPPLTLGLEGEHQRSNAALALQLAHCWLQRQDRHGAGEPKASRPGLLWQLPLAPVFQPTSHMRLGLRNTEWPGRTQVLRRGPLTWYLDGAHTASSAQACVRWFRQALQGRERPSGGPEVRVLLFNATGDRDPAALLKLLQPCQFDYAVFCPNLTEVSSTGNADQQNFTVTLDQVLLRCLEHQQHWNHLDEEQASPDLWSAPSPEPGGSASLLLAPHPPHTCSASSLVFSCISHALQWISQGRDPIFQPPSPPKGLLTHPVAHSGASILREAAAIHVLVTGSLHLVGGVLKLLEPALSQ

CCRF-CEM [2] = test: Cell growth in human CCRF-CEM cells at 30 nM in presence of 5 uM thymidine and 10 uM deoxycytidine relative to control; format: functional
CCRF-CEM [3] = test: Cell growth in human CCRF-CEM cells at 30 nM in presence of 10 uM hypoxanthine and 10 uM deoxycytidine; format: functional
CCRF-CEM [4] = test: Cell growth in human CCRF-CEM cells at 30 nM in presence of thymidine, hypoxanthine and 10 uM deoxycytidine; format: functional
CCRF-CEM [5] = test: Cell growth in human CCRF-CEM cells in presence of 5 uM thymidine and 10 uM deoxycytidine relative to control; format: functional
CCRF-CEM [6] = test: Cell growth in human CCRF-CEM cells in presence of 10 uM hypoxanthine and 10 uM deoxycytidine relative to control; format: functional
CCRF-CEM [7] = test: Cell growth in human CCRF-CEM cells in presence of thymidine and hypoxanthine and 10 uM deoxycytidine relative to control; format: functional
CCRF-CEM [8] = test: Growth inhibition in human CCRF-CEM cells assessed as cell growth relative to control; format: functional; design: scale not given: the % may be the effect or the level left
Thymidylate synthase [9] = target: Thymidylate synthase (Homo sapiens, UniProt P04818); test: Inhibition of human recombinant thymidylate synthase
Sequence of Thymidylate synthase (Homo sapiens, UniProt P04818) (P04818 whole entry): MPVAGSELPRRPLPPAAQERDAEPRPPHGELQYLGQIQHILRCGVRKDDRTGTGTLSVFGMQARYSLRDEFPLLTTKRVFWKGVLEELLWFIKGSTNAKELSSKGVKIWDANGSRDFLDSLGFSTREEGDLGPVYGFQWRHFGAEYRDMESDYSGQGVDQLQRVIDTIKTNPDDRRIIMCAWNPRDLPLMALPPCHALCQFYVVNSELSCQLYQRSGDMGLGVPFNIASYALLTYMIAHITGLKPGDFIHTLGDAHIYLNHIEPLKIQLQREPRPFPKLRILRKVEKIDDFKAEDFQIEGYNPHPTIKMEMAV

Thymidylate synthase [10] = target: T2, Thymidylate synthase (Lactobacillus casei, UniProt P00469); test: Inhibition of Lactobacillus casei thymidylate synthase; design: species or system Lacticaseibacillus casei
T2 sequence (P00469 whole entry): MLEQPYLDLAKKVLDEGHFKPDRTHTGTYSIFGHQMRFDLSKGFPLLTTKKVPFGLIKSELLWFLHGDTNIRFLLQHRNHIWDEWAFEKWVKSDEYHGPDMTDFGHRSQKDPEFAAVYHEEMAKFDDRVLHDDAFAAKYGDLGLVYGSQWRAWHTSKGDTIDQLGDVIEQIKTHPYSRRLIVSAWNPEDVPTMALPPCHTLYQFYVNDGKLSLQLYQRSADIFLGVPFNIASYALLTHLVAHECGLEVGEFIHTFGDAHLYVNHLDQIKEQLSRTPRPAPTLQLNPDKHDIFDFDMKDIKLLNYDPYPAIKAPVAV

CCRF-CEM [11] = test: Cell growth in human CCRF-CEM cells relative to control; format: functional
[12] = Cytotoxicity against human CCRF-CEM cells; format: cell-based
[13] = Cytotoxicity against human HL60 cells; format: cell-based; conditions: HL-60 cells
[14] = Cytotoxicity against human K562 cells; format: cell-based
[15] = Cytotoxicity against human SR cells; format: cell-based
[16] = Cytotoxicity against human A549 cells; format: cell-based
[17] = Cytotoxicity against human NCI-H460 cells; format: cell-based
[18] = Cytotoxicity against human HOP92 cells; format: cell-based; conditions: HOP-92 cells
[19] = Cytotoxicity against human HCT116 cells; format: cell-based; conditions: HCT-116 cells
[20] = Cytotoxicity against human SW620 cells; format: cell-based; conditions: SW-620 cells
SF-268 = test: Cytotoxicity against SF268 cells; format: functional; conditions: Homo sapiens
[21] = Cytotoxicity against human SK-MEL-28 cells; format: cell-based
[22] = Cytotoxicity against human 786-0 cells; format: cell-based
[23] = Cytotoxicity against human PC3 cells; format: cell-based; conditions: PC-3 cells
[24] = Cytotoxicity against human MCF7 cells; format: cell-based
[25] = Cytotoxicity against human MDA-MB-435 cells; format: cell-based
[26] = Cytotoxicity against MDAN cells; format: cell-based, MDA-N; conditions: human
Thymidylate synthase [27] = target: Thymidylate synthase (Escherichia coli, UniProt C3SWJ7); test: Inhibition of Escherichia coli thymidylate synthase
Sequence of Thymidylate synthase (Escherichia coli, UniProt C3SWJ7) (C3SWJ7 whole entry): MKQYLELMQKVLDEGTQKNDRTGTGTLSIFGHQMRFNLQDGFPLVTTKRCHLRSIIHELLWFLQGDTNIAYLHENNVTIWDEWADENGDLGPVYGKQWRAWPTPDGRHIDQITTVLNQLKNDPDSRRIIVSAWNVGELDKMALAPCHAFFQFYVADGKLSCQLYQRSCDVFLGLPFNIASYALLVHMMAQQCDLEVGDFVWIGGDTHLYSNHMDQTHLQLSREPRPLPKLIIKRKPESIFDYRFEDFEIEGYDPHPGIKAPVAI

CCRF-CEM [28] = test: Growth inhibition of human CCRF-CEM cells at 1500 nM; format: functional
Dihydrofolate reductase [29] = target: T3, Dihydrofolate reductase (Homo sapiens, UniProt P00374)
T3 sequence (P00374 whole entry): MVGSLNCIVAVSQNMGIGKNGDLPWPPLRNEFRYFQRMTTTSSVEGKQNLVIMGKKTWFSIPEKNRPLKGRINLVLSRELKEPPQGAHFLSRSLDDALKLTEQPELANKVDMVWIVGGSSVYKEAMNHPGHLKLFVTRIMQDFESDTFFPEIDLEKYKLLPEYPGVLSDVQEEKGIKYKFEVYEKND
Description: Inhibition of human recombinant DHFR

Dihydrofolate reductase [30] = target: T4, Dihydrofolate reductase (Escherichia coli, UniProt P0ABQ4)
T4 sequence (P0ABQ4 whole entry): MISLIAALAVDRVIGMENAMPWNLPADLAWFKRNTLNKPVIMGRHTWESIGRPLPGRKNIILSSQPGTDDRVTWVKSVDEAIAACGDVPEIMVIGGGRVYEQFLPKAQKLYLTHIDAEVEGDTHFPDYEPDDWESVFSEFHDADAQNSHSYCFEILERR
Description: Inhibition of Escherichia coli DHFR

Dihydrofolate reductase [31] = target: Dihydrofolate reductase (Lactobacillus casei, UniProt P00381)
Sequence of Dihydrofolate reductase (Lactobacillus casei, UniProt P00381) (P00381 whole entry): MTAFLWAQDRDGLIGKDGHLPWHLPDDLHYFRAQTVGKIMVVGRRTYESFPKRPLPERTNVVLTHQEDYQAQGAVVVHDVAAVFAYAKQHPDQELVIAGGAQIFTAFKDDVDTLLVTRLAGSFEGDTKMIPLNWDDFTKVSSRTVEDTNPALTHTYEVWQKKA
Description: Inhibition of Lactobacillus casei DHFR

[32] = substrate: Nc1nc(N)c2c(CCCc3ccc(C(=O)N[C@@H](CCC(=O)O)C(=O)O)cc3)coc2n1; test: Activity of human recombinant cytosolic FPGS
[33] = substrate: Nc1nc(N)c2c(CCCc3ccc(C(=O)N[C@@H](CCC(=O)O)C(=O)O)cc3)coc2n1; test: (§1) Activity of human recombinant cytosolic FPGS relative to aminopterin
[34] = substrate: Nc1nc(N)c2c(CCc3ccc(C(=O)N[C@@H](CCC(=O)O)C(=O)O)cc3)coc2n1; test: as §1

Molecule: Nc1nc(N)c2c(CCc3ccc(C(=O)N[C@@H](CCC(=O)O)C(=O)O)cc3)coc2n1
- Ratio [1]: 0.07

Molecule: CN(Cc1cnc2nc(N)nc(N)c2n1)c1ccc(C(=O)N[C@@H](CCC(=O)O)C(=O)O)cc1 [METHOTREXATE]
- Activity (CCRF-CEM [2]): 16%
- Activity (CCRF-CEM [3]): 15.5%
- Activity (CCRF-CEM [4]): 74.5%
- Activity (CCRF-CEM [5]): 12.5%
- Activity (CCRF-CEM [6]): 13.5%
- Activity (CCRF-CEM [7]): 73.5%

Molecule: Nc1ccn([C@H]2C[C@H](O)[C@@H](CO)O2)c(=O)n1 [DOXECITINE]
- Activity (CCRF-CEM [8]): 97%

Molecule: Nc1nc(N)c2nc(CNc3ccc(C(=O)N[C@@H](CCC(=O)O)C(=O)O)cc3)cnc2n1
- Ratio [1]: 0.22

Molecule: Nc1nc2[nH]cc(CCc3ccc(C(=O)N[C@@H](CCC(=O)O)C(=O)O)cc3)c2c(=O)[nH]1 [PEMETREXED]
- IC50 (Thymidylate synthase [9]): 19000 nM
- IC50 (Thymidylate synthase [10]): 38000 nM

Molecule: Nc1nc(N)c2c(CCCc3ccc(C(=O)N[C@@H](CCC(=O)O)C(=O)O)cc3)coc2n1
- Activity (CCRF-CEM [11]): 21%
- Activity (CCRF-CEM [5]): 25.5%
- Activity (CCRF-CEM [6]): 20%
- Activity (CCRF-CEM [7]): 73.5%
- GI50 [12]: 42.9 nM
- GI50 [13]: 10 nM
- GI50 [14]: 10 nM
- GI50 [15]: 10 nM
- GI50 [16]: 16.6 nM
- GI50 [17]: 10 nM
- GI50 [18]: 95900 nM
- GI50 [19]: 10 nM
- GI50 [20]: 10 nM
- GI50 (SF-268): 648 nM
- GI50 [21]: 100000 nM
- GI50 [22]: 123 nM
- GI50 [23]: 12.5 nM
- GI50 [24]: 174 nM
- GI50 [25]: 21.4 nM
- GI50 [26]: 22.3 nM
- IC50 (Thymidylate synthase [9]): > 18000 nM
- IC50 (Thymidylate synthase [27]): > 180000 nM
- IC50 (Thymidylate synthase [10]): > 100000 nM
- Ratio [1]: 1.4
- inhibition at 1.5 µM (CCRF-CEM [28]): 80%
- IC50 (Dihydrofolate reductase [29]): 9000 nM
- IC50 (Dihydrofolate reductase [30]): 7000 nM
- IC50 (Dihydrofolate reductase [31]): 11000 nM

B1: Folylpolyglutamate synthase, mitochondrial (Homo sapiens), Q05932 (protein)
chain: MSRARSHLRAALFLAAASARGITTQVAARRGLSAWPVPQEPSMEYQDAVRMLNTLQTNAGYLEQVKRQRGDPQTQLEAMELYLARSGLQVEDLDRLNIIHVTGTKGKGSTCAFTECILRSYGLKTGFFSSPHLVQVRERIRINGQPISPELFTKYFWRLYHRLEETKDGSCVSMPPYFRFLTLMAFHVFLQEKVDLAVVEVGIGGAYDCTNIIRKPVVCGVSSLGIDHTSLLGDTVEKIAWQKGGIFKQGVPAFTVLQPEGPLAVLRDRAQQISCPLYLCPMLEALEEGGPPLTLGLEGEHQRSNAALALQLAHCWLQRQDRHGAGEPKASRPGLLWQLPLAPVFQPTSHMRLGLRNTEWPGRTQVLRRGPLTWYLDGAHTASSAQACVRWFRQALQGRERPSGGPEVRVLLFNATGDRDPAALLKLLQPCQFDYAVFCPNLTEVSSTGNADQQNFTVTLDQVLLRCLEHQQHWNHLDEEQASPDLWSAPSPEPGGSASLLLAPHPPHTCSASSLVFSCISHALQWISQGRDPIFQPPSPPKGLLTHPVAHSGASILREAAAIHVLVTGSLHLVGGVLKLLEPALSQ
- Km [32]: 0.3 µM
- Vmax [33]: 0.42
- Vmax [34]: 0.65
